Laboratory results from patent publication US20120309709A1, “Ion-Channel Regulator Compositions and Methods of Using Same” (priority 2007, published 2012).
Where “and” joins values, the source holds several entries; their conditions need not be identical. Equal values may be shown once. Read-outs that look alike come from different tables or passages of the source.

How the values were obtained:
[1] = test system: cells in the synovial tissue; assay: Trypan blue exclusion test on synovial tissue; settings: Examples 1-4
Procedure: Multiple samples of synovial tissue, each approximately 20 mg, were obtained from a person with osteoarthritis (grade IV, Kellgren-Lawrence scale).

[2] = test system: MMPs produced by synovial tissue in response to IL-1β; settings: for activity of the MMPs, % of that measured in tissues not exposed to the regulator: IL-1β alone = 100%
[3] = Example 1, person, regulator 0.01 mg/mL
[4] = Example 1, person, regulator 0.05 mg/mL
[5] = Example 2, person, regulator 0.01 mg/mL
[6] = Example 2, person, regulator 0.05 mg/mL
[7] = Example 3, person, regulator 0.01 mg/mL
[8] = Example 3, person, regulator 0.05 mg/mL
[9] = Example 4, person, regulator 0.01 mg/mL
[10] = Example 4, person, regulator 0.05 mg/mL
[11] = Example 5, person, single regulator 0.1 mg/mL
[12] = Example 6, person, single regulator 0.1 mg/mL
[13] = Example 7, person, single regulator 0.1 mg/mL

| SMILES | concentration at which death of cells in the synovial tissue was observed [1] | activity of the MMPs, % of that measured in tissues not exposed to the regulator [2, 3] | activity of the MMPs, % of that measured in tissues not exposed to the regulator [2, 4] | activity of the MMPs, % of that measured in tissues not exposed to the regulator [2, 5] | activity of the MMPs, % of that measured in tissues not exposed to the regulator [2, 6] | activity of the MMPs, % of that measured in tissues not exposed to the regulator [2, 7] | activity of the MMPs, % of that measured in tissues not exposed to the regulator [2, 8] | activity of the MMPs, % of that measured in tissues not exposed to the regulator [2, 9] | activity of the MMPs, % of that measured in tissues not exposed to the regulator [2, 10] | activity of the MMPs, % of that measured in tissues not exposed to the regulator [2, 11] | activity of the MMPs, % of that measured in tissues not exposed to the regulator [2, 12] | activity of the MMPs, % of that measured in tissues not exposed to the regulator [2, 13] | effect on blocking MMP activity of further increasing the concentration ([2]; Examples 1-4, concentration increased from 0.05 mg/mL up to 0.1 mg/mL, compared with level at 0.05 mg/mL) |
| --- | --- | --- | --- | --- | --- | --- | --- | --- | --- | --- | --- | --- | --- |
| COc1ccc(CCN(C)CCCC(C#N)(c2ccc(OC)c(OC)c2)C(C)C)cc1OC (stereo not shown) [verapamil] | above 0.1 mg/mL | 38% | 18.9% | 37.2% | 21.5% | 37% | 23.2% | 35% | 13.6% and 13.1% | 16% | 21.9% | 17.4% | – |
| COc1ccc([C@@H]2Sc3ccccc3N(CCN(C)C)C(=O)[C@@H]2OC(C)=O)cc1 [diltiazem] | above 0.1 mg/mL | 97% | 27.1% | 99% | 35.7% | 97% | 24.7% | 98.1% | 22.6% | 24.8% | 29.8% | 34.3% | no further effect |
